Laboratory results taken from US20180141965A1, “AUTOTAXIN INHIBITORS AND USES THEREOF” (NATIONAL AND KAPODISTRIAN UNIVERSITY OF ATHENS, priority 2015, published 2018).
Read-outs that look alike come from different tables or passages of the source.

Biological target: T1, recombinant ATX (mouse ATX-β) (Mus musculus, UniProt Q9R1E6)
T1 construct: purchased Sino Biological
Test: Inhibition of ATX, Amplex Red PLD assay kit
Format: biochemical
Conditions: 2 nM recombinant ATX, mean of two independent experiments
Description: The in vitro activity of the synthetic inhibitors was studied using the Amplex™ Red PLD assay kit (Molecular Probes, Interchim, Montlucon, France). Inhibitors were dissolved in DMSO (stock solution 3 mM) and appropriate dilutions were made in DMSO. […] The IC50 values were determined using the mean values obtained from two independent experiments. The IC50 values were determined graphically using the sigmoid dose-response fitting method (PrismH software) by the equation f=y0+a/(1+exp(−(x−x0)/b)) given by SigmaPlot 11.0.

[1] = hydroxamates, substrate 50 μM LPC 16:0, read-out: IC50 (μM) 16:0 LPC
[2] = thioamides/phosphonates/phosphinates, substrate 50 μM LPC 16:0, read-out: IC50 (μM) 16:0 LPC
[3] = thioamides/phosphonates/phosphinates, substrate 50 μM LPC 18:0, read-out: IC50 (μM) 18:0 LPC
[4] = hydroxamates, substrate 50 μM LPC 18:0, read-out: IC50 (μM) 18:0 LPC
[5] = thioamides/phosphonates/phosphinates, substrate 50 μM LPC 18:1, read-out: IC50 (μM) 18:1 LPC

For `O=C(Cc1ccc(NC(=O)CCCCC(=O)Nc2ccccc2)cc1)NO` [GK285], the IC50 [1] was 1.2 µM.

Compound `CCCCCCCCCCCCCC(=S)NCCCC[PH](=O)O` [GK312] has an IC50 [2] of 3 µM and an IC50 [3] of 0.7 µM.

In the case of `CCCCCCCCCCCCCC(=S)NCCCC[PH](=O)O` [GK325], the IC50 [2] is reported as 0.5 µM and the IC50 [3] is reported as 1 µM.

With `CCCCCCCCCCCCCC(=O)Nc1ccc(CC[PH](=O)O)cc1` [GK327] the IC50 [2] was 0.4 µM and the IC50 [3] was 4 µM.

Compound `CCCCCCCCCCCCCC(=O)Nc1ccc(CC(=O)NO)cc1` [GK332] has an IC50 [1] of 1 µM and an IC50 [4] of 0.2 µM.

For `O=C(Cc1ccc(NC(=O)CCCCCCc2ccccc2)cc1)NO` [GK333], the IC50 [1] was 0.7 µM and the IC50 [4] was 2 µM.

Compound `Nc1ccccc1NC(=O)Cc1ccc(NC(=O)CCCCC(=O)Nc2ccccc2)cc1` [GK335] has an IC50 [1] of 0.6 µM.

For `COC(=O)[C@@H](CCC(=O)NO)NC(=O)CCCCC(=O)Nc1ccccc1` [GK337], the IC50 [1] was 0.4 µM and the IC50 [4] was 5 µM.

`O=C(Cc1ccc(NC(=O)CCCCNC(=O)c2ccccc2)cc1)NO` [GK340] showed an IC50 [1] of 1 µM and an IC50 [4] of 0.2 µM.

In the case of `CCCCOc1ccc(CCCCC(=O)Nc2ccc(CC(=O)NO)cc2)cc1` [GK341], the IC50 [1] is reported as 4 µM.

`CCCCCCCCc1ccc(OCC(=O)Nc2ccc(CC(=O)NO)cc2)cc1` [GK344] was tested, and the IC50 [1] was 1 µM and the IC50 [4] was 0.3 µM.

For `CCCCCCCCc1ccc(CCC(=O)Nc2ccc(CC(=O)NO)cc2)cc1` [GK345], the IC50 [1] was 5 µM.

In the case of `O=C(Cc1ccc(NC(=O)CCCCCCC(=O)Nc2ccccc2)cc1)NO` [GK346], the IC50 [1] is reported as 2 µM.

Work on `CCCCCCCCCCCCCC(=S)NCCCCC(=S)NCC` [GK377] yielded an IC50 [2] of 0.198 µM and an IC50 [5] of 0.098 µM.

`CCCCCCCCCCCCCC(=S)NCCCCP(=O)(O)OCC` [GK378] showed an IC50 [2] of 0.12 µM and an IC50 [5] of 0.05 µM.

Compound `COc1ccc(C(=O)NCCCCC(=O)Nc2ccc(CC(=O)NO)cc2)cc1` [GK381] has an IC50 [1] of 1 µM.

`COC(=O)[C@@H](CCC(=O)NO)NC(=O)CCCCC(=O)Nc1ccc(OC)cc1` [GK382] was tested, and the IC50 [1] was 4 µM.

`COC(=O)[C@@H](CCCC(=O)NO)NC(=O)CCCCC(=O)Nc1ccccc1` [GK400] showed an IC50 [1] of 0.05 µM.

For `CCCC[C@@H](CCCC(=O)NO)NC(=O)CCCCC(=O)Nc1ccccc1` [GK442], the IC50 [1] was 0.06 µM.

With `CCCCCCCCCCCCNC(=S)NCCCCC(=S)NCC` [GK446] the IC50 [2] was 0.06 µM.

`CCCC[C@@H](CCCC(=O)NO)NC(=S)NCCCC(=O)Nc1ccccc1` [GK471] was tested, and the IC50 [1] was 0.8 µM.
